This is an account of results in US10675331B2, “Method for achieving desired glial growth factor 2 plasma levels” (priority 2008, dated 2020).

For one data set, the system named is melanoma. The conditions noted are these: cited from earlier work.
In a further data set the test system is advanced kidney cancer. The conditions noted are these: cited from earlier work.
A further data set relates to MAPK. Briefly: MAPK (Erk) activation in Schwann cell-DRG co-cultures, Western blot. Type of data set: cell-based, rat. (In general: A western blot detects proteins with antibodies after separation by electrophoresis.)
The subject of a further data set is P0. The conditions noted are these: U0126 treated cultures.
Data set [1] relates to Schwann cell-DRG neuron co-cultures. The data set is described as follows: Myelination in Schwann cell-DRG neuron co-cultures, MBP immunostaining. Type of data set: cell-based, rat. The protocol:
Schwalm cells were prepared from sciatic nerves of newborn rats (1-2 day old) as described previously (Brookes et al., Brain Res. 1979; 165:105-118). For routine culture, Schwann cells were grown in. Dulbecco's modified Eagle's medium (DMEM) with 10% fetal bovine serum (FBS) supplemented with EGF-domain neuregulin-1 (R&D Systems) (10 ng/ml) and Forskolin (2 μM). Cells between passage 2-4 were used in all experiments described in the text.
Dissociated DRG were prepared from embryonic day 14.5 rat embryos as described previously (Eldridge et al., J Cell Biol. 1987; 105(2):1023-34) and plated onto collagen (type-1 rat tail collagen,)-coated 12 mm glass coverslips at a density of 1.25 DRG/coverslip. Five to six hours later, the cultures were flooded with neurobasal medium (Cellgro,) supplemented with B27 (GIBCO), 20% glucose, NGF (50 ng/ml) and 5-fluorodeoxyuridine (FUdR, 10 μM) and maintained in the medium for additional 2-3 days in order to remove proliferating non-neuronal cells. Cultures were then switched to fresh medium without FUdR and maintained until the DRG axons reached the periphery of the coverslips. After the axonal networks were established, Schwann cells were plated onto the neurons at a density of 100,000 cells/coverslip. […] Ten to eleven days later, myelination was assessed by immunostaining for MBP. […]

The test system of the next data set is MEK-1 and MEK-2. The conditions noted are these: cited from earlier work.
A further data set relates to Krox20. The conditions noted are these: U0126 treatment, 11 days.
The next data set deals with c-Jun. The data set is described as follows: c-Jun expression in co-culture lysates, Western blot. It is filed as cell-based, rat. The conditions noted are these: GGF+U0126, 11 days. From the text:
Control cultures were maintained without any treatment (NT). Scale bar: 100 μm. […] Error bars indicate±SE (p<0.001). […] Actin level served as a loading control.

For another data set, the system named is Akt. Briefly: Akt (PI3-kinase pathway) activation in Schwann cell-DRG co-cultures, Western blot. The conditions noted are these: U0126 with GGF2. Type of data set: cell-based, rat.
The test system of data set [2] is advanced colorectal, NSCLC, breast, and pancreatic cancer. The conditions noted are these: 67 patients; cited from earlier work.
For data set [3] the following is noted: Phase I studies; cited from earlier work.
Another data set relates to metastatic breast cancer. The conditions noted are these: less in the intermittent dosing group than the continuous; cited from earlier work.
For data set [4] the following is noted: in vivo; cited from earlier work.
A further data set has as its target MAP kinase-kinase. The conditions noted are these: many assays; read-out: IC50 values for PD 98059-induced effects; cited from earlier work.
Setting [5] is: patients who received sorafenib.

Entries after “also recorded” stand apart in the source; their conditions may differ. Where only a bound is given, the exact number is not on record here.

Method for Akt: (§1) Monoclonal antibody to phosphorylated Akt and polyclonal antibody to phosphorylated MAPK were purchased from Cell Signaling and were used at dilutions of 1:1000 and 1:500, respectively. Polyclonal antibodies to Akt and MAPK (Promega) were used at dilutions of 1:1000 and 1:5000, respectively.
(§2) To prepare cell lysates, 90-95% confluent rat Schwann cells on 60 mm plates or co-cultures were washed twice in phosphate-buffered saline (PBS) and then lysed in 300 μl ice-cold lysis buffer (50 mM Tris HCl pH 7.4, 1% NP-40, 0.25% Sodium Deoxycholate, 150 mM NaCl, 1 mM EGTA, 10 μg/ml Leupeptin, 2 μg/ml Aprotinin, 1 mM PMSF and 0.5 mM sodium orthovanadate). Lysates were cleared by centrifugation for 15 min at 14,000 rpm in the cold and the protein concentration of the supernatants was determined according to manufacturer specifications (Bio-Rad: Hercules, Calif.). […]
(§3) To assess the possibility that the inhibitory effect of GGF2 on myelination could be due to its ability to induce a robust MAPK activation in Schwann cells, the present inventors used a well-established in vitro myelinating culture system in which Schwann cells are co-cultured with dorsal root ganglion (DRG) neurons and induced to myelinate the associated axons by addition of ascorbic acid to the culture media. […] Twenty minutes later, cell lysates were prepared and MAPK activation was determined by Western blot analysis. […]
Method for Krox20: Schwann cell-DRG co-cultures were pre-treated with U0126 for 30 minutes then GGF (0.6 nM) was added in the continuous presence of U0126. After 45 minutes the cell lysates were prepared and level of p-Erk and p-Akt were determined. […] Control cultures were maintained without any treatment (NT). […] Co-cultures were treated with increasing concentration of U0126 (0.5, 1 and 3 nM) under myelinating condition and 11 days later, myelination was analyzed as above. […] Co-cultures were maintained under myelinating condition in the presence of GGF or GGF+U0126 (0.5, 1 and 3 nM) for 11 days and the cell lysates were analyzed for MBP, c-Jun and Krox 20 expression. Actin level served as a loading control.
as §2
Method for MAPK: as §1
To prepare cell lysates, 90-95% confluent rat Schwann cells on 60 mm plates or co-cultures were washed twice in phosphate-buffered saline (PBS) and then lysed in 300 μl ice-cold lysis buffer (50 mM Tris HCl pH 7.4, 1% NP-40, 0.25% Sodium Deoxycholate, 150 mM NaCl, 1 mM EGTA, 10 μg/ml Leupeptin, 2 μg/ml Aprotinin, 1 mM PMSF and 0.5 mM sodium orthovanadate). Lysates were cleared by centrifugation for 15 min at 14,000 rpm in the cold and the protein concentration of the supernatants was determined according to manufacturer specifications (Bio-Rad: Hercules, Calif.). For Western blot analysis, 50-70 μg of Schwann cell lysates were size-fractionated on 10% SDS-polyacrylamide gels and transferred onto PVDF membranes. After blocking in 5% milk, the membranes were incubated with appropriate primary antibodies prepared in blocking solution. After incubating with horseradish peroxidase conjugated secondary antibodies, the protein bands were visualized by enhanced chemiluminescence. For immunoprecipitation, 500 μg of Schwann cell lysates were incubated with 0.6 μg of primary antibody for 3 hours at 4° C., then incubated with 50 μl Sepharose A beads for 1 hour. […]
as §3

As to `O=C(NOC[C@H](O)CO)c1ccc(F)c(F)c1Nc1ccc(I)cc1F` [PD 0325901], the “response in melanoma patients” value in the data set on melanoma (human, in vivo) is recorded as “some partial response”. In the data set on melanoma (oral), the “dose at which ocular and neurological toxicity presented” value is on record as no less than 10 mg twice-a-day.
Regarding `CNC(=O)c1cc(Oc2ccc(NC(=O)Nc3ccc(Cl)c(C(F)(F)F)c3)cc2)ccn1` [sorafenib, Sorafenib], in the data set with advanced kidney cancer (768 patients), the “most common side effects” value is “hypertension, fatigue, diarrhea, and rash”; the tolerability entry is “very well tolerated”. For the same compound, the “progression-free survival (PFS), median” value in the data set with advanced kidney cancer (769 analyzed patients) is 24 weeks. For the same compound, in the data set on advanced kidney cancer (in vivo), the 12-week progression-free rate is given as 79%. Moreover, in the data set with advanced kidney cancer (setting [5]), the disease control is reported as 80%, the partial response is given as 2% and the stable disease is on record as 78%.
With `N#CC(=C(/N)Sc1ccccc1N)/C(C#N)=C(\N)Sc1ccccc1N` [U0126], the “level of GGF2-induced MAPK activation” value with MAPK (U0126 1 μM, 30 minutes pretreatment, GGF2 0.6 nM) is listed as “reduced to the basal level”. The “MAPK activation in the co-culture” value in the data set on MAPK (U0126 10 μM, 30 minutes pretreatment, GGF2 0.6 nM) was “completely abolished”. In addition, the “GGF2-induced Erk activation” value in the data set with MAPK (increasing concentrations of U0126, FIG. 3B) is given as “inhibited GGF2-induced Erk activation in a dosage-dependent manner”. For the same compound, in the data set on P0, the P0 expression entry is reported as “increase in P0 expression”. The level of myelination entry in data set [1] (U0126 in the absence of GGF2, FIG. 3E) was “increase in the level of myelination”. Moreover, the “myelination in GGF2-treated co-cultures” value in [1] (co-treated with GGF2 and U0126, ten to eleven days) is “dose-dependent increase in myelination; also recorded: the inhibitory effect of GGF2 was reversed”. Moreover, the “higher potency than PD 98059” value with MEK-1 and MEK-2 is 100 fold. Further, in the data set on Krox20, the Krox20 expression result was “increase in Krox20 expression”. Besides, in the data set on c-Jun, the “GGF-induced c-Jun expression” value was “down-regulating”. In addition, the “effect on GGF2-induced PI3-kinase / Akt activation” value in the data set on Akt is reported as “no effect”.
On to `O=C(NOCC1CC1)c1ccc(F)c(F)c1Nc1ccc(I)cc1Cl` [CI-1040], for which, in data set [2], the responses result was “no responses” and the tolerability entry was “well tolerated”. Also, the side effects entry in data set [3] is “mild gastrointestinal and skin side effects”.
For the compound `Cn1cncc1[C@@](N)(c1ccc(Cl)cc1)c1ccc2c(c1)c(-c1cccc(Cl)c1)cc(=O)n2C` [Zarnestra, tipifarnib], the “major side effects observed” value in the data set on metastatic breast cancer is “bone marrow suppression and neuropathy”.
Take `N#C/C(=C(/N)Sc1ccc(N)cc1)c1ccccc1C(F)(F)F` [SL 327]: the brain penetration entry in data set [4] is “brain penetrant”.
For `COc1cccc(-c2cc(=O)c3ccccc3o2)c1N` [PD 98059], the half-maximal inhibitory concentration (IC50) (as a rule, the concentration at which inhibition is half-maximal) on MAP kinase-kinase is 1 to 20 µM.
